Assay results from patent US20050054006A1, “Combinatorial fluorescent library based on the styryl scaffold” (New York University, priority 2003, published 2005).
Values joined by “and” are separate entries in the source; they are usually repeats but may differ in a detail not shown here. Identical values can stand only once. “Also recorded” adds a separate entry of the source.

Assays:
[1] = Fluorescence excitation/emission of the styryl dye library compounds; format: physicochemical
[2] = test system: UACC-62 human melanoma cells; test: Organelle localization in live cells by fluorescence microscopy; conditions: live UACC-62 cells, fluorescence microscope λex=405, 490, 570 nm; λem>510 nm

Structure (SMILES)	EM(nm) ([1]; EX/EM peak no. 1)	EX(nm) ([1]; EX/EM peak no. 1)	LOCALIZATION [2]	EM(nm) ([1]; EX/EM peak no. 2)	EX(nm) ([1]; EX/EM peak no. 2)
C[n+]1c(C=Cc2c[nH]c3ccccc23)ccc2ccccc21.[I-] [Compound H24]	560 nm	400-500 nm	CYTO	–	–
CN(C)c1ccc(C=Cc2ccc3ccccc3[n+]2C)c2ccccc12.[I-] [Compound H27]	620 nm	500(broad) nm	MITO	–	–
C[n+]1c(C=Cc2ccc3c(c2)Cc2ccccc2-3)ccc2ccccc21.[I-] [Compound H28]	660 nm	350-500 nm	NUCLEI	–	–
C[n+]1c(/C=C/c2c(F)c(F)c(F)c(F)c2F)ccc2ccccc21.[I-] [Compound H31]	610 nm	420 nm	MITO and NUCLEI	–	–
C[n+]1c(C=Cc2cccc3ccccc23)ccc2ccccc21.[I-] [Compound H32]	660 nm	420 nm	MITO and NUCLEOLI	–	–
C[n+]1c(C=Cc2ccc3ccccc3c2)ccc2ccccc21.[I-] [Compound H33]	620 nm	340-460 nm	MITO and NUCLEI and CYTO and VESICLE	–	–
C[n+]1c(C=Cc2ccc3c(c2)OCO3)ccc2ccccc21.[I-] [Compound H39]	670 nm and 560 nm	530 nm and 430(broad) nm	CYTO	–	–
COc1ccc2c(ccc(C=CCc3ccccc3)[n+]2C)c1.[I-] [Compound I1]	630 nm	460 nm	MITO	–	–
COc1ccc2c(ccc(C=Cc3ccccc3Br)[n+]2C)c1.[I-] [Compound I3]	640 nm	480 nm	MITO	–	–
COc1ccc2c(ccc(C=Cc3cccc(Br)c3)[n+]2C)c1.[I-] [Compound I4]	620 nm	400(broad) nm	GRANULE	–	–
COc1ccc(C=Cc2ccc3cc(OC)ccc3[n+]2C)cc1.[I-] [Compound I10]	520 nm	–	CYTO and VESICLE	640	–
COc1ccc2c(ccc(C=Cc3ccc(OCc4ccccc4)c(OCc4ccccc4)c3)[n+]2C)c1.[I-] [Compound I12]	560 nm	–	VESICLE	–	–
COc1ccc2c(ccc(C=Cc3ccc(OC)c4ccccc34)[n+]2C)c1.[I-] [Compound I14]	580-590 nm	460 nm	VESICLE	–	–
COc1ccc2c(ccc(C=Cc3ccc(O)cc3)[n+]2C)c1.[I-] [Compound I16]	–	360 nm	VESICLE; also recorded: NUCLEOLI	610	360-460 nm
COc1ccc2c(ccc(C=Cc3ccc(-c4ccccc4)cc3)[n+]2C)c1.[I-] [Compound I17]	510 nm	–	VESICLE	–	–
COc1ccc2c(ccc(/C=C/c3ccc(NC(C)=O)cc3)[n+]2C)c1.[I-] [Compound I18]	650 nm	430(broad) nm	NUCLEOLI	–	–
COc1ccc2c(ccc(C=Cc3ccc(N(C)C)cc3)[n+]2C)c1.[I-] [Compound I19]	630 nm	–	NUCLEOLI	–	–
COc1ccc2c(ccc(C=Cc3ccccc3[N+](=O)[O-])[n+]2C)c1.[I-] [Compound I20]	620 nm	420(broad) nm	NUCLEOLI	–	–
COc1ccc2c(ccc(C=Cc3cccc([N+](=O)[O-])c3)[n+]2C)c1.[I-] [Compound I21]	620 nm	390 nm	VESICLE; also recorded: NUCLEOLI	–	–
COc1ccc2c(ccc(C=Cc3ccc(N(C)C)c4ccccc34)[n+]2C)c1.[I-] [Compound I27]	630-660 nm	420 nm	NUCLEOLI	–	–
COc1ccc2c(ccc(C=Cc3ccc4c(c3)Cc3ccccc3-4)[n+]2C)c1.[I-] [Compound I28]	660 nm	450(broad) nm	NUCLEOLI	–	–
COc1ccc2c(ccc(C=Cc3ccc(F)cc3)[n+]2C)c1.[I-] [Compound I30]	630 nm	–	MITO	–	–

Structure (SMILES)	EM(nm) ([1]; EX/EM peak no. 1)	EX(nm) ([1]; EX/EM peak no. 1)	LOCALIZATION [2]	EM(nm) ([1]; EX/EM peak no. 2)	EX(nm) ([1]; EX/EM peak no. 2)
COc1ccc2c(ccc(C=Cc3c(F)c(F)c(F)c(F)c3F)[n+]2C)c1.[I-] [Compound I31]	610 nm	380 nm	MITO and NUCLEI and CYTO	–	–
COc1ccc2c(ccc(C=Cc3cccc4ccccc34)[n+]2C)c1.[I-] [Compound I32]	610 nm	360-440 nm	MITO and NUCLEI and NUCLEOLI	–	–
COc1ccc2c(ccc(/C=C/c3ccc4ccccc4c3)[n+]2C)c1.[I-] [Compound I33]	640 nm	420 nm	VESICLE and MITO and NUCLEI	560	320-460 nm
COc1ccc2c(ccc(C=CC=Cc3ccccc3)[n+]2C)c1.[I-] [Compound I35]	580 nm	320-360 nm	CYTO	–	–
COc1ccc2c(ccc(C=CC=Cc3ccc(N(C)C)cc3)[n+]2C)c1.[I-] [Compound I37]	730 nm	530 nm	CYTO	–	–
COc1ccc2c(ccc(C=Cc3cc(OC)c(OC)cc3OC)[n+]2C)c1.[I-] [Compound I38]	620 nm	390 nm	CYTO	–	–
Cc1ccnc(-c2cc(/C=C/Cc3ccccc3)cc[n+]2C)c1.[I-] [Compound J1]	620 nm	450 nm	MITO	–	–
Cc1ccnc(-c2cc(/C=C/c3ccccc3Br)cc[n+]2C)c1.[I-] [Compound J3]	620 nm	450 nm	MITO	–	–
COc1ccccc1C=Cc1cc[n+](C)c(-c2cc(C)ccn2)c1.[I-] [Compound J9]	520 nm	420(broad) nm	MITO	–	–
COc1ccc(C=Cc2cc[n+](C)c(-c3cc(C)ccn3)c2)cc1.[I-] [Compound J10]	520 nm	350-450 nm	MITO	–	–
Cc1ccnc(-c2cc(C=Cc3ccc(OCc4ccccc4)c(OCc4ccccc4)c3)cc[n+]2C)c1.[I-] [Compound J12]	560 nm	350-470 nm	VESICLE	–	–
COc1ccc(C=Cc2cc[n+](C)c(-c3cc(C)ccn3)c2)cc1O.[I-] [Compound J15]	530 nm	340-440 nm	VESICLE	–	–
Cc1ccnc(-c2cc(/C=C/c3ccc(N(C)C)cc3)cc[n+]2C)c1.[I-] [Compound J19]	640 nm	480 nm	MITO	–	–
Cc1ccnc(-c2cc(C=Cc3ccccc3[N+](=O)[O-])cc[n+]2C)c1.[I-] [Compound J20]	620 nm	420 nm	VESICLE	–	–
Cc1ccnc(-c2cc(C=Cc3c(F)c(F)c(F)c(F)c3F)cc[n+]2C)c1.[I-] [Compound J31]	520 nm	–	MITO	–	–
Cc1ccnc(-c2cc(/C=C/c3cccc4ccccc34)cc[n+]2C)c1.[I-] [Compound J32]	530 nm	350-450 nm	MITO	–	–
Cc1ccnc(-c2cc(C=Cc3ccc4ccccc4c3)cc[n+]2C)c1.[I-] [Compound J33]	520 nm	320-450 nm	MITO	–	–
Cc1ccnc(-c2cc(C=CC=Cc3ccccc3)cc[n+]2C)c1.[I-] [Compound J35]	580 nm	340-420 nm	CYTO	–	–
COc1cc(OC)c(OC)cc1C=Cc1cc[n+](C)c(-c2cc(C)ccn2)c1.[I-] [Compound J38]	590 nm	380-500 nm	MITO	–	–
Cc1ccnc(-c2cc(C=Cc3ccc4c(c3)OCO4)cc[n+]2C)c1.[I-] [Compound J39]	560 nm	350-450 nm	MITO	–	–
COc1ccc(C=Cc2cccc(C)[n+]2C)cc1.[I-] [Compound L10]	510 nm	420 nm	MITO	–	–
